Measurements published in patent publication US20230346969A1, “INTERMEDIATE FOR PREPARING ANTIBODY-DRUG CONJUGATE (ADC), PREPARATION METHOD THEREFOR, AND USE THEREOF” (priority 2020, published 2023).
Like-named read-outs stand apart in the source and are kept apart here.

Assays:
[1] = Adverse effects and weight loss of mice treated in the efficacy models; type: in vivo, BALB/c nu/nu mice
From the text: (§1) Five-week-old female athymic BALB/c nu/nu mice were purchased from Charles River Company (Shanghai, China), and mice were randomly divided into 5-6 mice/group. Animal handling and procedures were approved and performed in accordance with the requirements of the Institutional Animal Care and Use Committee (IACUC) of Shanghai Institute of Materia Medica, Chinese Academy of Sciences. All models were inoculated subcutaneously on the side of mice. BXPC-3, HCC1806 and NCIH1688 cells were established by injecting and homogenizing 5 × 10^6 cells in Matrigel matrix. COLO205 cells were established by injecting and suspending 1 × 10^7 cells in Matrigel matrix. After the tumor volume reached about 200 mm^3, the tumor-bearing mice were randomly divided into treatment groups and a control group according to the tumor volume. Each drug was administered intraperitoneally. Mice were injected at doses of 3 or 10 mg/kg (10 mL/kg). Tumor volume was defined as length × ½ × width × width. The percentage of inhibition was calculated by the following formula: (1-average tumor volume of the treatment group/average tumor volume of the control group)×100%. Toxicity of the different treatment groups was assessed by monitoring weight loss.

[2] = test system: mixture of Trop-2-positive tumor cells BXPC-3 and Trop-2-negative tumor cells NCIH1688; assay: Bystander effect: transplanted tumor from mixture of BXPC-3 and NCIH1688 cells; type: in vivo, BALB/c-nu/nu mice; conditions: 3 mg/kg, transplanted tumors heterogeneously expressing Trop-2
From the text: as §1, with “Mice were injected at doses of 3 or 10 mg/kg (10 mL/kg). Tumor volume was defined as length × ½ × width × width.” left out
(§2) A mixture of Trop-2-positive tumor cells BXPC-3 and Trop-2-negative tumor cells NCIH1688 or NCIH1688 cells alone were inoculated into BALB/c-nu/nu mice (FIG. 1e, right panel), and the “bystander effect” of hRS7-VK-PTX was detected in a mouse transplanted tumor model.

HT29 = assay: Cell viability assay (CCK-8); type: cell-based; conditions: CCK-8, 96 hours, Colon, read-out: IC50 (95% Cl)
Experimental: (§3) Cell viability was determined using Cell Counting Kit 8 (CCK-8). Cells were seeded into 96-well plates at 3000-10000 cells/well. After incubation overnight, drugs were added at different concentrations. Plates were incubated in a 5% CO2, 37° C. humidified chamber for 96 hours. CCK8 reagent was added thereto and the plates were placed back to the incubator until the absorbance at 450 nm of untreated control cells was greater than 1.0. Growth inhibition was measured as the percent growth relative to untreated cells. Dose response curve was generated from the mean values of two or three tests, and IC50 values were calculated using Prism GraphPad software.
(§4) The anti-tumor efficacy of different payloads on different tumor cell lines was detected by CCK-8, and the results are shown in FIG. 5.

CFPAC-1 = assay: Cell viability assay (CCK-8); type: cell-based; conditions: CCK-8, 96 hours, read-out: IC50 (95% Cl)
Experimental: as §3, §4

MDA-MB-468 = assay: Cell viability assay (CCK-8); type: cell-based; conditions: CCK-8, 96 hours, read-out: IC50 (95% Cl)
Experimental: as §3, §4

BXPC-3 = assay: Cell viability assay (CCK-8); type: cell-based; conditions: CCK-8, 96 hours, Pancreas, read-out: IC50 (95% Cl)
Experimental: as §3, §4

NCI-H1688 = assay: Cell viability assay (CCK-8); type: cell-based; conditions: CCK-8, 96 hours, Lung, read-out: IC50 (95% Cl)
Experimental: as §3, §4

Capan-1 = assay: Cell viability assay (CCK-8); type: cell-based; conditions: CCK-8, 96 hours, Pancreas, read-out: IC50 (95% Cl)
Experimental: as §3, §4

SKBR3 = assay: Cell viability assay (CCK-8); type: cell-based; conditions: CCK-8, 96 hours, read-out: IC50 (95% Cl)
Experimental: as §3, §4

SCLC-21H = assay: Cell viability assay (CCK-8); type: cell-based; conditions: CCK-8, 96 hours, read-out: IC50 (95% Cl)
Experimental: as §3, §4

COLO205 = assay: Cell viability assay (CCK-8); type: cell-based; conditions: CCK-8, 96 hours, read-out: IC50 (95% Cl)
Experimental: as §3, §4

SK-MES-1 = assay: Cell viability assay (CCK-8); type: cell-based; conditions: CCK-8, 96 hours, Lung, read-out: IC50 (95% Cl)
Experimental: as §3, §4

MDA-MB-231 = assay: Cell viability assay (CCK-8); type: cell-based; conditions: CCK-8, 96 hours, Mamary, read-out: IC50 (95% Cl)
Experimental: as §3, §4

NCIH2452 = assay: Cell viability assay (CCK-8); type: cell-based; conditions: ADCs; CCK-8, 96 hours; cell 'HOC2401' [sic], Lung; read-out: IC50 (95% Cl)
Experimental: as §3, §4

HCC1806 = assay: Cell viability assay (CCK-8); type: cell-based; conditions: CCK-8, 96 hours, Mamary, read-out: IC50 (95% Cl)
Experimental: as §3, §4

NCIH1688 cells = assay: Transplanted tumor from NCIH1688 cells alone (not expressing Trop-2); type: in vivo, BALB/c-nu/nu mice; conditions: hRS7-VK-PTX 10 mg/kg, hRS7-VK-MMAE 3 mg/kg
From the text: as §1, with “Mice were injected at doses of 3 or 10 mg/kg (10 mL/kg). Tumor volume was defined as length × ½ × width × width.” left out
as §2

[3] = Dose tolerability, single intravenous dose acute toxicity; type: in vivo; conditions: single intravenous dose 60 mg/kg, BALB/c mice
Experimental: Dose tolerability assay was performed in BALB/c mice (3 mice per dose). The drug was given in a single intravenous dose. The injection doses of hRS7-VK-PTX were 60, 80 and 100 mg/kg, and the injection doses of hRS7-VK-MMAE were 60 and 80 mg/kg, respectively. Toxicity was assessed by observing mouse behavior, weight loss and survival. The weight change rate (%) was calculated as: (body weight - body weight before treatment)/(body weight before treatment) × 100%.
The safety of relatively high doses of hRS7-VK-PTX in BALB/c mice was studied by an acute toxicity experiment with single intravenous administration in mice.

SKBR3 cells = assay: Endocytosis and intracellular localization of ADC by confocal microscopy; type: cell-based; conditions: 5 µg/mL, 37° C., 45 or 90 min
Experimental: SKBR3 cells were incubated with 5 µg/mL of hRS7-VK-PTX or hRS7-VK-SN38 in a 24-well plate (1 × 10^4 cells/well) in a 5% CO2, 37° C. incubator for 45 or 90 min. Cells were washed once with PBS, fixed and permeabilized. After washing, cells were stained with 488 goat anti-human IgG (H&L) or 555 anti-rabbit IgG F(ab′)2 fragment. Nuclear DNA was stained with 4′,6-dimidyl-2-phenylindole (DAPI). Immunofluorescence was recorded with an Olympus BK71 confocal microscope.
SKBR3 cells were incubated with ADC molecules at 37° C. for 45 or 90 min. Unbound ADC was removed by washing cells in a culture medium, then the cells were fixed and permeabilized. The marker proteins LAMP-1, GM130 and clathrin were detected with their respective antibodies and a secondary antibody conjugated to Alex®555 (red). Anti-Trop-2 ADC was detected with DyLight®488-conjugated secondary antibody (green). DAPI was used to stain nuclear DNA (blue).

[4] = ADCs, cell CPAC-1 [sic], Pancreas
[5] = ADCs, cell printed 'COXC28', Colon

Row | Compound | IC50 (HT29; ADCs, cell '3128' [sic]) | IC50 (CFPAC-1; [4]) | IC50 (MDA-MB-468; ADCs, SRM-M9-409, Mammary) | IC50 (BXPC-3; ADCs, cell RMCA [sic]) | IC50 (NCI-H1688; ADCs, cell 'HCl-11685' [sic]) | IC50 (Capan-1; ADCs, Cxoo-1 [sic]) | IC50 (SKBR3; ADCs, 'SKERS' [sic], Mammary) | IC50 (SCLC-21H; ADCs, SRM-C-21H) | IC50 (COLO205; [5]) | IC50 (SK-MES-1; ADCs, cell 'SK-WSS-7' [sic]) | IC50 (MDA-MB-231; ADCs, cell 'SRM-K9-231' [sic]) | IC50 (NCIH2452) | IC50 (HCC1806; ADCs, 'HOC1906' [sic]) | further results
1 | hRS7-VK-MMAE | ~250 nM | > 300 nM | 0.0645 nM | 0.0124 nM | ~3.76 nM | > 300 nM | ~2.24 nM | 0.0324 nM | > 300 nM | > 325 nM | > 300 nM | ~1.21 nM | 0.0174 nM | adverse effects or weight loss in treated mice, relative to hRS7-VK-PTX (none) ([1]; hRS7-VK-MMAE 3 mg/kg, hRS7-VK-SN38 3 or 10 mg/kg, PTX alone): stark contrast; tumor growth inhibition index (TGI) [2]: 91.7%; killing effect on transplanted tumors not expressing Trop-2 (NCIH1688 cells): had a killing effect; adverse reactions [3]: severe adverse reactions; body weight loss [3]: more than 15%
2 | CCc1c2c(nc3ccc(O)cc13)-c1cc3c(c(=O)n1C2)COC(=O)[C@]3(O)CC [SN38] |  |  |  |  |  |  |  |  |  |  |  |  |  | IC50 (HT29; free payloads, cell 'H123' [sic]): > 305 nM; IC50 (CFPAC-1; free payloads, cell CFPAC-1, Pancreas): ~0.281 nM; IC50 (MDA-MB-468; free payloads, cell printed 'MOA-413-468', Mamary): 3.72 nM; IC50 (BXPC-3; free payloads, cell 'BKFC-Y' [sic]): 20.8 nM; IC50 (NCI-H1688; free payloads, cell 'NCl-H1828' [sic]): ~4.9 nM; IC50 (Capan-1; free payloads, cell 'Cepes-3' [sic]): 5.61 nM; IC50 (SKBR3; free payloads, cell 'SK8RS' [sic], Mamary): 2.14 nM; IC50 (SCLC-21H; free payloads, cell 'ECLC 214' [sic], Small cell lung): 2.14 nM; IC50 (COLO205; free payloads, cell 'CCAO205' [sic], Colen): 33.4 nM; IC50 (SK-MES-1; free payloads, cell 'SK-M55-1' [sic]): 5.5 nM; IC50 (MDA-MB-231; free payloads, 'MCP-83-21' [sic]): 103 nM; IC50 (HCC1806; free payloads, 'HCCHOI' [sic]): 0.412 nM
3 | hRS7-VK-SN38 | 5.59 nM | 3.14 nM | 1.37 nM | 1.53 nM | > 300 nM | 12.4 nM | 1.45 nM | 16.3 nM | 16.8 nM | 80.5 nM | 3.03 nM | 10.3 nM | 0.879 nM | adverse effects or weight loss in treated mice, relative to hRS7-VK-PTX (none) ([1]; mouse, in vivo): stark contrast; internalization and intracellular localization (SKBR3 cells): did not undergo significant internalization
